Results on eight compounds are retold here after patent US7214707B2, “Dimeric compounds and their use as anti-viral agents” (Biota Scientific Management Pty Ltd., priority 2001, dated 2007).

The subject of one data set is B/Harbin/7/95 BVLV008. Description: Plaque reduction assay (PRA) in MDCK cells. As to conditions: read-out: EC50 PRA B/Harb. In kind it is cell-based, influenza virus. (In general: Plaque reduction counts the foci of infection that form in a cell layer.)
Data set [1] relates to A/Victoria/3/75 BVLV017 (H3N2). Description: Plaque reduction assay (PRA) in MDCK cells. In kind it is cell-based. As to conditions: Influenza A virus, read-out: EC50 PRA A/Vic.
In data set [2] the test system is A/New Caledonia/20/99 BVLV008 (H1N1). Description: Plaque reduction assay (PRA) in MDCK cells. In kind it is cell-based. As to conditions: Influenza A virus, read-out: EC50 PRA A/New.
The subject of a further data set is Influenza B/Harbin/7/95. The data set can be described thus: Cytopathic effect (CPE) assay in MDCK cells, MTT readout. Format: cell-based, influenza virus. The following applies: concentration inhibiting CPE by 50%, up to 72 hours.
Data set [3] has as its system B/Yamanashi/166/98 BVLV007. Description: Plaque reduction assay (PRA) in MDCK cells. The following applies: influenza B virus, read-out: EC50 PRA B/Yam, reduces plaque numbers by 50%, MDCK cells. In kind it is cell-based.
The nature of data set [4]: Rat lung retention after intra-tracheal dosing (long duration of action). As to conditions: in vivo. How it is done: Rodents are anaesthetised and dosed with compound of interest by the intra-tracheal route at a dose volume of 0.8 ml/kg. The rodent is then held in the vertical position until full recovery is achieved. […] Any analytical method suitable for detection of this type of compound may be used. The time at which levels of compound fall below the sensitivity of the analytical techniques identified will determine the residency time of the compound in lung tissue.
Please note that all experiments included a co-dosed internal standard, namely compound 3 of International Patent Publication No. WO 02/20514, to permit comparison. The data are expressed as a ratio with respect to this compound, the structure of which is shown below.
The data for compound A is included for comparison purposes.

Another data set concerns Influenza A/Sydney/5/97. The data set can be described thus: Cytopathic effect (CPE) assay in MDCK cells, MTT readout. Format: cell-based, influenza virus. The following applies: concentration inhibiting CPE by 50%, up to 72 hours.
The subject of a further data set is B/Hong Kong/5/72 BVLV012. Description: Plaque reduction assay (PRA) in MDCK cells. Format: cell-based, influenza virus. The following applies: read-out: EC50 PRA B/HongK.
The subject of data set [5] is A/Panama/2007/99 BVLV008 (H3N2). The data set can be described thus: Plaque reduction assay (PRA) in MDCK cells. Format: cell-based. As to conditions: Influenza A virus, read-out: EC50 PRA A/Pan.
For data set [6], the system named is A/Bayem/7/95 BVL006 (H1N1). Description: Plaque reduction assay (PRA) in MDCK cells. Format: cell-based. As to conditions: Influenza A virus, read-out: EC50 PRA A/Bay.
The subject of data set [7] is A/Sydney/5/97 BVLV015 (H3N2). The data set can be described thus: Plaque reduction assay (PRA) in MDCK cells. Format: cell-based. The following applies: Influenza A virus, read-out: EC50 PRA A/Syd.
A further data set deals with A/WSN/33 BVLV09 (H1N1). The data set can be described thus: Plaque reduction assay (PRA) in MDCK cells. As to conditions: Influenza A virus, read-out: EC50 PRA A/WSN. In kind it is cell-based.
The mark [8] stands for this setting: reduces plaque numbers by 50%, MDCK cells.

≈ marks a conversion by molar mass, not a printed value. Structures can show the parent of a compound that is named as a salt. Where two headings read alike, the source gives them in different places.

For `CC(=O)N[C@H]1[C@H]([C@H](OC(=O)Nc2ccc(Cc3ccc(NC(=O)O[C@@H]([C@@H]4OC(C(=O)O)=C[C@H](NC(=N)N)[C@H]4NC(C)=O)[C@H](O)CO)cc3)cc2)[C@H](O)CO)OC(C(=O)O)=C[C@@H]1NC(=N)N` [Example 8, (2R,3R,4S)-3-(acetylamino)-2-{(1R,2R)-1-[({[4-({4-[({[(1R,2R)-1-((2R,3R,4S)-3-(acetylamino)-4-{[amino(imino)methyl]amino}-6-carboxy-3,4-dihydro-2H-pyran-2-yl)-2,3-dihydroxypropyl]oxy}carbonyl)amino]phenyl}methyl)phenyl]amino}carbonyl)oxy]-2,3-dihydroxypropyl}-4-{[amino(imino)methyl]amino}-3,4-dihydro-2H-pyran-6-carboxylic Acid bis TFA Salt], the EC50 is < 0.0001 ng/mL in the data set on B/Harbin/7/95 BVLV008, 0.003 ng/mL in data set [1] (setting [8]), 0.0001 ng/mL in [2] (setting [8]) and 0.02 ng/mL in data set [3]. In addition, the “ID50 B/Harbin/7/95” value in the data set with Influenza B/Harbin/7/95 was <0.05 ng/mL. The “Ratio Mean (lung) (cmpd)/PCT AU01/01128 compound 3” value (“Ratio Mean (lung)” for short) in data set [4] (0.4 mg/kg, 48 h) was determined as 1.05; in [4] (0.4 mg/kg, 168 h), 2.28. Besides, in [4] (0.4 mg/kg, 168 h), the “(lung)” value is on record as 3571 ng/g. Besides, the concentration at 48 h was found to be 3800 ng/g in data set [4] (0.4 mg/kg, (lung) ng/g) and 3250 ng/g in [4] (0.4 mg/kg, Mean (lung) ng/g). Besides, the concentration at 168 h is 3230 ng/g in data set [4] (0.4 mg/kg, (lung) ng/g) and 3400 ng/g in data set [4] (0.4 mg/kg, Mean (lung) ng/g). In addition, the “ID50 A/Sydney/5/97” value with Influenza A/Sydney/5/97 is 13 ng/mL.
For `NC12CC3CC(CC(C3)C1)C2` [Amantadine], the EC50 with B/Hong Kong/5/72 BVLV012 is > 10000 ng/mL; in [1] (setting [8]) it was 220 ng/mL (≈ 1450 nM); in data set [2] (setting [8]) it was 11 ng/mL (≈ 72.7 nM); in [5] (setting [8]), 157 ng/mL (≈ 1040 nM).
As to `CC(=O)N[C@H]1[C@H]([C@H](OC(=O)NCc2ccc(-c3ccc(CNC(=O)O[C@@H]([C@@H]4OC(C(=O)O)=C[C@H](NC(=N)N)[C@H]4NC(C)=O)[C@H](O)CO)cc3)cc2)[C@H](O)CO)OC(C(=O)O)=C[C@@H]1NC(=N)N` [Example 9, (2R,3R,4S)-3-(acetylamino)-2-{(1R,2R)-1-[({[(4′-{[({[(1R,2R)-1-((2R,3R,4S)-3-(acetylamino)-4-{[amino(imino)methyl]amino}-6-carboxy-3,4-dihydro-2H-pyran-2-yl)-2,3-dihydroxypropyl]oxy}carbonyl)amino]methyl}-1,1′-biphenyl-4-yl)methyl]amino}carbonyl)oxy]-2,3-dihydroxypropyl}-4-{[amino(imino)methyl]amino}-3,4-dihydro-2H-pyran-6-carboxylic Acid bis TFA Salt], the EC50 is 0.23 ng/mL with B/Hong Kong/5/72 BVLV012; 0.003 ng/mL in data set [2] (setting [8]); 0.006 ng/mL in data set [3]; > 1 ng/mL in data set [6] (H1N1, reduces plaque numbers by 50%, MDCK cells); 3.7 ng/mL in data set [7] (setting [8]). In the data set on Influenza B/Harbin/7/95, the “ID50 B/Harbin/7/95” value was found to be 0.08 ng/mL. Also, the “Ratio Mean (lung)” value in [4] (0.1 mg/kg, 48 h) worked out at 0.52; in data set [4] (0.1 mg/kg, 168 h), 0.45. Besides, the concentration at 48 h in data set [4] (0.1 mg/kg, Mean (cmpd) ng/g) was 1400 ng/g. Also, the concentration at 168 h in data set [4] (0.1 mg/kg, Mean (cmpd) ng/g) was 835 ng/g. Also, the “ID50 A/Sydney/5/97” value with Influenza A/Sydney/5/97 is >100 ng/mL.
For `CCOC(=O)C1=C[C@@H](OC(CC)CC)[C@H](NC(C)=O)[C@@H](N)C1` [Oseltamivir], the EC50 with B/Hong Kong/5/72 BVLV012 worked out at 32 ng/mL (≈ 102 nM); in [1] (setting [8]), 0.11 ng/mL (≈ 0.352 nM); in data set [2] (setting [8]) it was 0.23 ng/mL (≈ 0.736 nM); in [3] it was 0.7 ng/mL (≈ 2.24 nM); in [5] (setting [8]), 0.3 ng/mL (≈ 0.96 nM).
`CC(=O)N[C@H]1[C@H]([C@H](OC(=O)NCCc2cccc(CCNC(=O)O[C@@H]([C@@H]3OC(C(=O)O)=C[C@H](NC(=N)N)[C@H]3NC(C)=O)[C@H](O)CO)c2)[C@H](O)CO)OC(C(=O)O)=C[C@@H]1NC(=N)N` [Example 1, (2R,3R,4S)-3-(acetylamino)-2-{(1R,2R)-1-[({[2-(3-{2-[({[(1R,2R)-1-((2R,3R,4S)-3-(acetylamino)-4-{[amino(imino)methyl]amino}-6-carboxy-3,4-dihydro-2H-pyran-2-yl)-2,3-dihydroxypropyl]oxy}carbonyl)amino]ethyl}phenyl)ethyl]amino}carbonyl)oxy]-2,3-dihydroxypropyl}-4-{[amino(imino)methyl]amino}-3,4-dihydro-2H-pyran-6-carboxylic Acid]: in the data set with Influenza B/Harbin/7/95, the “ID50 B/Harbin/7/95” value was 0.2 ng/mL (≈ 0.227 nM). Moreover, in the data set on Influenza A/Sydney/5/97, the “ID50 A/Sydney/5/97” value came to 84 ng/mL (≈ 95.4 nM).
`CC(=O)N[C@H]1[C@H]([C@H](O)[C@H](O)CO)OC(C(=O)O)=C[C@@H]1N=C(N)N` [Compound A, 4-guanidino-2-deoxy-2,3-dehydro-N-acetylneuraminic acid, reference compound]: the EC50 with B/Hong Kong/5/72 BVLV012 came out at 21 ng/mL (≈ 63.2 nM); in the data set with B/Harbin/7/95 BVLV008, 0.19 ng/mL (≈ 0.572 nM); in data set [1], 5.5 ng/mL (≈ 16.6 nM); in data set [2], 0.27 ng/mL (≈ 0.812 nM); in [6] (H1N1, MDCK), 35 ng/mL (≈ 105 nM); in the data set with A/WSN/33 BVLV09 (H1N1), 56 ng/mL (≈ 169 nM). The results for the EC50 in data set [5] and in data set [7] were 2.7 ng/mL (≈ 8.12 nM) and 2.4 ng/mL (≈ 7.22 nM), respectively. For the same compound, the “Ratio Mean (lung)” value in [4] (0.1 mg/kg, 48 h) turned out to be 0.26; in [4] (0.1 mg/kg, 168 h) it was 0.08.
In the case of `CC(=O)N[C@H]1[C@H]([C@H](OC(=O)NCc2ccc(S(=O)(=O)c3ccc(CNC(=O)O[C@@H]([C@@H]4OC(C(=O)O)=C[C@H](NC(=N)N)[C@H]4NC(C)=O)[C@H](O)CO)cc3)cc2)[C@H](O)CO)OC(C(=O)O)=C[C@@H]1NC(=N)N` [Example 4, (2R,3R,4S)-3-(acetylamino)-2-[(1R,2R)-1-({[({4-[(4-{[({[(1R,2R)-1((2R,3R,4S)-3-(acetylamino)-4-{[amino(imino)methyl]amino}-6-carboxy-3,4-dihydro-2H-pyran-2-yl)-2,3-dihydroxypropyl]oxy}-carbonyl)amino]methyl}phenyl)sulfonyl]phenyl}methyl)amino]carbonyl}oxy)-2,3-dihydroxypropyl]-4-{[amino(imino)methyl]amino}-3,4-dihydro-2H-pyran-6-carboxylic Acid], in the data set on Influenza B/Harbin/7/95, the “ID50 B/Harbin/7/95” value is <0.05 ng/mL. Further, the “ID50 A/Sydney/5/97” value in the data set on Influenza A/Sydney/5/97 is >100 ng/mL.
Consider `CC(=O)N[C@H]1[C@H]([C@H](OC(=O)NCCc2ccc(CCNC(=O)O[C@@H]([C@@H]3OC(C(=O)O)=C[C@H](NC(=N)N)[C@H]3NC(C)=O)[C@H](O)CO)cc2)[C@H](O)CO)OC(C(=O)O)=C[C@@H]1NC(=N)N` [Example 2, (2R,3R,4S)-3-(acetylamino)-2-{(1R,2R)-1-[({[2-(4-{2-[({[(1R,2R)-1-((2R,3R,4S)-3-(acetylamino)-4-{[amino(imino)methyl]amino}-6-carboxy-3,4-dihydro-2H-pyran-2-yl)-2,3-dihydroxypropyl]oxy}carbonyl)amino]ethyl}phenyl)ethyl]amino}carbonyl)oxy]-2,3-dihydroxypropyl}-4-{[amino(imino)methyl]amino}-3,4-dihydro-2H-pyran-6-carboxylic Acid], for which the “Ratio Mean (lung)” value is 0.44 in data set [4] (0.1 mg/kg, 48 h) and 0.34 in data set [4] (0.1 mg/kg, 168 h). The concentration at 48 h in data set [4] (0.1 mg/kg, (cmpd) ng/g) is 740 ng/g; in data set [4] (0.1 mg/kg, Mean (cmpd) ng/g), 603 ng/g. The concentration at 168 h in [4] (0.1 mg/kg, Mean (cmpd) ng/g) was found to be 259 ng/g.
